Measurements: the NIST ThermoML archive (doi:10.1021/je2013704)
Numbers after ± are expanded uncertainties.

Assay: mn = molality of the nth substance listed, in mol/kg
Details: Liquid, Vibrating tube method

[Cl-].[Na+] [sodium chloride] + O
mass density [kg/m3]
Details | 298.12 K | 323.07 K | 348.04 K | 372.99 K | 397.97 K | 422.94 K | 447.94 K | 472.96 K
900 kPa, m1 = 1.06 | 1038.78 ± 0.08 | 1028.45 ± 0.07 | 1014.93 ± 0.07 | 998.89 ± 0.07 | 980.42 ± 0.08 | 959.71 ± 0.09 | 936.49 ± 0.11 | –
900 kPa, m1 = 3.16 | 1111.08 ± 0.11 | 1098.8 ± 0.11 | 1084.57 ± 0.1 | 1068.6 ± 0.1 | 1051.16 ± 0.09 | 1031.93 ± 0.09 | 1010.87 ± 0.09 | –
900 kPa, m1 = 6 | 1194.53 ± 0.16 | 1180.58 ± 0.15 | 1165.53 ± 0.14 | 1149.58 ± 0.13 | 1132.48 ± 0.13 | 1114.2 ± 0.12 | 1094.62 ± 0.12 | –
9900 kPa, m1 = 1.06 | 1042.49 ± 0.1 | 1032.1 ± 0.09 | 1018.61 ± 0.08 | 1002.77 ± 0.07 | 984.6 ± 0.08 | 964.31 ± 0.1 | 941.64 ± 0.13 | 916.86 ± 0.16
9900 kPa, m1 = 3.16 | 1114.33 ± 0.16 | 1102.1 ± 0.15 | 1087.94 ± 0.14 | 1072.14 ± 0.12 | 1054.84 ± 0.11 | 1036.08 ± 0.1 | 1015.28 ± 0.09 | 993.19 ± 0.1
9900 kPa, m1 = 6 | 1197.36 ± 0.24 | 1183.46 ± 0.23 | 1168.53 ± 0.22 | 1152.7 ± 0.2 | 1135.74 ± 0.19 | 1117.84 ± 0.17 | 1098.38 ± 0.16 | 1078.2 ± 0.15
19900 kPa, m1 = 1.06 | 1046.61 ± 0.12 | 1036.09 ± 0.11 | 1022.67 ± 0.09 | 1007 ± 0.07 | 989.13 ± 0.08 | 969.29 ± 0.11 | 947.14 ± 0.15 | 923.12 ± 0.19
19900 kPa, m1 = 3.16 | 1117.89 ± 0.22 | 1105.63 ± 0.21 | 1091.54 ± 0.19 | 1075.95 ± 0.16 | 1058.92 ± 0.14 | – | – | 998.47 ± 0.09
19900 kPa, m1 = 6 | 1200.44 ± 0.35 | 1186.57 ± 0.33 | 1171.76 ± 0.3 | 1156.09 ± 0.28 | 1139.35 ± 0.26 | 1121.56 ± 0.24 | 1102.62 ± 0.22 | 1082.67 ± 0.2
29900 kPa, m1 = 1.06 | 1050.58 ± 0.15 | – | 1026.61 ± 0.11 | 1011.16 ± 0.08 | 993.51 ± 0.08 | 974.04 ± 0.11 | 952.41 ± 0.16 | 929 ± 0.22
29900 kPa, m1 = 3.16 | 1121.4 ± 0.29 | 1109.07 ± 0.26 | 1095.09 ± 0.24 | 1079.61 ± 0.21 | 1062.79 ± 0.18 | 1044.51 ± 0.15 | 1024.61 ± 0.12 | 1003.47 ± 0.09
29900 kPa, m1 = 6 | 1203.47 ± 0.45 | 1189.69 ± 0.42 | 1174.98 ± 0.4 | 1159.48 ± 0.37 | 1142.8 ± 0.33 | 1125.33 ± 0.3 | 1106.53 ± 0.27 | 1087.01 ± 0.25
39900 kPa, m1 = 1.06 | 1054.45 ± 0.18 | 1043.77 ± 0.16 | 1030.49 ± 0.13 | 1015.15 ± 0.09 | 997.76 ± 0.07 | 978.6 ± 0.12 | 957.55 ± 0.17 | 934.76 ± 0.24
39900 kPa, m1 = 3.16 | 1124.91 ± 0.36 | 1112.54 ± 0.33 | 1098.65 ± 0.29 | 1083.24 ± 0.26 | 1066.63 ± 0.22 | 1048.68 ± 0.18 | 1029.15 ± 0.14 | 1008.45 ± 0.11
39900 kPa, m1 = 6 | 1206.51 ± 0.56 | 1192.73 ± 0.53 | 1178.07 ± 0.49 | 1162.74 ± 0.45 | 1146.27 ± 0.41 | 1128.98 ± 0.37 | 1110.46 ± 0.33 | 1091.28 ± 0.3
49900 kPa, m1 = 1.06 | 1058.27 ± 0.22 | 1047.49 ± 0.19 | 1034.25 ± 0.15 | 1019.09 ± 0.11 | 1002.02 ± 0.07 | 983.2 ± 0.11 | 962.42 ± 0.18 | 940.22 ± 0.25
49900 kPa, m1 = 3.16 | 1128.21 ± 0.43 | 1115.9 ± 0.39 | 1101.95 ± 0.35 | 1086.77 ± 0.31 | 1070.44 ± 0.26 | 1052.68 ± 0.21 | – | 1013.17 ± 0.12
49900 kPa, m1 = 6 | 1209.49 ± 0.67 | 1195.77 ± 0.63 | 1181.15 ± 0.59 | 1165.95 ± 0.54 | 1149.66 ± 0.5 | 1132.56 ± 0.45 | 1114.27 ± 0.4 | 1095.39 ± 0.36
59900 kPa, m1 = 1.06 | 1061.93 ± 0.26 | 1051.1 ± 0.23 | 1037.94 ± 0.18 | 1022.88 ± 0.13 | 1006.01 ± 0.08 | 987.46 ± 0.11 | 967.35 ± 0.18 | 945.52 ± 0.26
59900 kPa, m1 = 3.16 | 1131.46 ± 0.5 | 1119.2 ± 0.46 | 1105.34 ± 0.41 | 1090.25 ± 0.36 | 1074.07 ± 0.31 | 1056.58 ± 0.25 | 1037.71 ± 0.19 | 1017.78 ± 0.14
59900 kPa, m1 = 6 | 1212.31 ± 0.79 | 1198.7 ± 0.74 | 1184.21 ± 0.69 | 1169 ± 0.64 | 1152.86 ± 0.58 | 1136.03 ± 0.53 | 1118.04 ± 0.47 | 1099.39 ± 0.42
68400 kPa, m1 = 1.06 | 1065.11 ± 0.3 | 1054.12 ± 0.26 | 1041.08 ± 0.21 | 1026.09 ± 0.15 | 1009.32 ± 0.1 | 991.15 ± 0.1 | 971.22 ± 0.18 | 949.91 ± 0.27
68400 kPa, m1 = 3.16 | 1134.29 ± 0.57 | 1121.87 ± 0.52 | 1108.22 ± 0.47 | 1093.16 ± 0.41 | 1077.08 ± 0.35 | 1059.82 ± 0.29 | 1041.14 ± 0.22 | 1021.53 ± 0.16
68400 kPa, m1 = 6 | 1214.78 ± 0.89 | 1201.09 ± 0.83 | 1186.78 ± 0.78 | 1171.6 ± 0.72 | 1155.61 ± 0.66 | 1138.92 ± 0.6 | 1121.1 ± 0.53 | 1102.68 ± 0.47
